In patent EP4424671A1, “NOVEL TRICYCLIC DERIVATIVE COMPOUND AND USE THEREOF” (Huchembio Co., Ltd., priority 2021, dated 2023):

System: STAT3 transcriptional activity
Assay: STAT3 transcriptional activity inhibitory effect, luciferase reporter assay with IL-6 stimulation
Assay type: cell-based, human
Details: for STAT3 transcriptional activity inhibitory effect % inhibition, 70% or more / inhibition at 1 µM / STAT3 transcriptional activity inhibitory effect % inhibition, 50-70%: IL-6 (10 ng/mL), 24 hours, HEK293 cells with STAT3 promoter and luciferase reporter; for STAT3 activity inhibitory effect (in words): compounds at 1 µM compared with BBI-608 at 3 µM; for inhibition at 1 µM: Homo sapiens, read-out: STAT3 transcriptional activity inhibitory effect % inhibition, 50% or less
Protocol: For HEK293 cells, an immortalized human kidney cell line, transformed HEK293 cells, in which an STAT3 promoter and a luciferase reporter were stably expressed, were used. The HEK293 cells, in which the STAT3 promoter was stably expressed, were cultured in a cell incubator at 5% CO2 and 37°C using an MEM (10% FBS) medium, and then an inhibitory effect on STAT3 transcriptional activity was confirmed by the following method.
First, HEK293 cells, in which the STAT3 promoter was stably expressed, were inoculated into a 96-well plate (white, clear bottom culture plate) at a density of 2X 10^4 cells/well, and then cultured in an incubator at 37°C and 5% CO2 for 24 hours. Then, the compound synthesized according to the above synthesis example (1 µM) or BBI-608 (Napabucasin; comparative group 3 µM) and IL-6 (10 ng/mL) were treated together, and reacted in an incubator at 37°C and 5% CO2 for 24 hours. Afterwards, the culture medium in the 96-well plate was removed, and the cells were lysed by treatment with Passive Lysis Buffer (Promega/Cat. Number E1941). Luciferase activity was tested using the Luciferase Assay System (Promega/Cat. Number E1501), and a luminescence value was measured using a microplate reader. A well not treated with IL-6 (10 ng/mL) without test substance treatment was used as a negative control, and a well treated with IL-6 (10 ng/mL) without test substance treatment was used as a positive control. A degree of STAT3 transcriptional activity inhibitory effect by the compound of the present invention was evaluated by comparing the luminescence values from each well.

SMILES | STAT3 transcriptional activity inhibitory effect % inhibition, 70% or more (compound concentration of 1 µM) | STAT3 activity inhibitory effect (in words) | inhibition at 1 µM (compound concentration of 1 µM) [%] | other results
O=C1c2ccccc2-c2ccc(-c3nccc4ncccc34)cc21 [Compound 8, 2-(1,6-naphthyridin-5-yl)-9H-fluoren-9-one] | ○ (70% or more) | excellent STAT3 activity inhibitory effect | – | –
O=C1c2ccccc2-c2ccc(-c3cccc4nccn34)cc21 [Compound 19, 2-(imidazo[1,2-a]pyridin-5-yl)-9H-fluoren-9-one] | – | – | ≤ 50 | –
c1ccc2c(-c3ccc4c5c([nH]c4c3)CCC5)cncc2c1 [Compound 21, 6-(isoquinolin-4-yl)-1,2,3,4-tetrahydrocyclopenta[b]indole] | ○ (70% or more) | excellent STAT3 activity inhibitory effect | – | –
O=c1c2ccccc2oc2ccc(-c3cncc4ccccc34)cc12 [Compound 3, 2-(isoquinolin-4-yl)-9H-xanthen-9-one] | – | – | ≤ 50 | –
O=C1c2ccccc2-c2ccc(-c3cncc4nccnc34)cc21 [Compound 5, 2-(pyrido[3,4-b]pyrazin-8-yl)-9H-fluoren-9-one] | – | – | – | STAT3 transcriptional activity inhibitory effect % inhibition, 50-70% (compound concentration of 1 µM): ○ (50-70%)
O=C1c2ccccc2-c2ccc(-c3cncc4ccccc34)cc21 [Compound 14, 2-(isoquinolin-4-yl)-9H-fluoren-9-one] | ○ (70% or more) | excellent STAT3 activity inhibitory effect | – | –
O=C1c2ccccc2-c2ccc(-c3cccc4cnccc34)cc21 [Compound 18, 2-(isoquinolin-5-yl)-9H-fluoren-9-one] | – | – | – | STAT3 transcriptional activity inhibitory effect % inhibition, 50-70% (compound concentration of 1 µM): ○ (50-70%)
c1ccc2c(-c3ccc4c(c3)[nH]c3ccncc34)cncc2c1 [Compound 13, 7-(isoquinolin-4-yl)-5H-pyrido[4,3-b]indole] | ○ (70% or more) | excellent STAT3 activity inhibitory effect | – | –
CC(=O)c1cc2c(o1)C(=O)c1ccccc1C2=O [BBI-608, Napabucasin, reference compound] | – | – | – | STAT3 transcriptional activity inhibitory effect % inhibition, 50-70% (comparative group at 3 uM): ○ (50-70%)
O=C1C(=O)c2cc(-c3cncc4ccccc34)ccc2-c2ccc(Br)cc21 [Compound 2, 2-bromo-7-(isoquinolin-4-yl)phenanthrene-9,10-dione] | – | – | ≤ 50 | –
O=C1c2ccccc2-c2ccc(-c3cccn4cnnc34)cc21 [Compound 20, 2-([1,2,4]triazolo[4,3-a]pyridin-8-yl)-9H-fluoren-9-one] | – | – | ≤ 50 | –
c1ccc2c(-c3ccc4c(c3)sc3ccccc34)cncc2c1 [Compound 11, 4-(dibenzo[b,d]thiophen-3-yl)isoquinoline] | – | – | ≤ 50 | –
O=C1c2ccccc2-c2ccc(-c3cncc4cccnc34)cc21 [Compound 7, 2-(1,6-naphthyridin-8-yl)-9H-fluoren-9-one] | ○ (70% or more) | excellent STAT3 activity inhibitory effect | – | –
O=C1c2ccccc2-c2ccc(-c3cccc4ccncc34)cc21 [Compound 17, 2-(isoquinolin-8-yl)-9H-fluoren-9-one] | – | – | ≤ 50 | –
c1ccc2c(-c3ccc4c(c3)[nH]c3ccccc34)cncc2c1 [Compound 15, 2-(isoquinolin-4-yl)-9H-carbazole] | – | – | – | STAT3 transcriptional activity inhibitory effect % inhibition, 50-70% (compound concentration of 1 µM): ○ (50-70%)
c1ccc2c(-c3ccc4c5c([nH]c4c3)CCCC5)cncc2c1 [Compound 16, 7-(isoquinolin-4-yl)-2,3,4,9-tetrahydro-1H-carbazole] | – | – | – | STAT3 transcriptional activity inhibitory effect % inhibition, 50-70% (compound concentration of 1 µM): ○ (50-70%)
O=c1c2ccccc2sc2ccc(-c3cncc4ccccc34)cc12 [Compound 4, 2-(isoquinolin-4-yl)-9H-thioxanthen-9-one] | – | – | – | STAT3 transcriptional activity inhibitory effect % inhibition, 50-70% (compound concentration of 1 µM): ○ (50-70%)
O=C1c2ccccc2-c2ccc(-c3cnc4ccccn34)cc21 [Compound 10, 2-(imidazo[1,2-a]pyridin-3-yl)-9H-fluoren-9-one] | – | – | ≤ 50 | –
O=C1c2ccccc2-c2ccc(-c3nccc4ccccc34)cc21 [Compound 22, 2-(isoquinolin-1-yl)-9H-fluoren-9-one] | – | – | ≤ 50 | –
O=C1c2ccccc2-c2ccc(-c3cnn4ccccc34)cc21 [Compound 9, 2-(pyrazolo[1,5-a]pyridin-3-yl)-9H-fluoren-9-one] | ○ (70% or more) | excellent STAT3 activity inhibitory effect | – | –
c1ccc2c(-c3ccc4c(c3)oc3ccccc34)cncc2c1 [Compound 12, 4-(dibenzo[b,d]furan-3-yl)isoquinoline] | – | – | ≤ 50 | –
O=C1c2ccccc2-c2ccc(-c3cccn4ccnc34)cc21 [Compound 23, 2-(imidazo[1,2-a]pyridin-8-yl)-9H-fluoren-9-one] | ○ (70% or more) | excellent STAT3 activity inhibitory effect | – | –
